# Measured values reported in US12552795B2, “Pyrrolotriazine derivatives for treating kit-and PDGFRA-mediated diseases” (Blueprint Medicines Corporation, priority 2019, dated 2026).
# Experiments:
# [1] = biological target: PDGFRα D842V (Homo sapiens (Human), UniProt P16234, D842V); test: PDGFRα D842V biochemical enzymatic activity assay (EZReader 2 mobility shift); conditions: ATP at APPKM (25 μM), 90 minutes
# Source text: PDGFRα and KIT enzymatic activity was monitored using the Perkin Elmer electrophoretic mobility shift technology platform, the EZReader 2.
# Within the linear, steady-state phase of the kinase enzymatic reaction, the mixed pool of phosphorylated (product) and non-phosphorylated (substrate) peptides was passed through the microfluidic system of the PerkinElmer EZ Reader 2, under an applied electric potential difference. The presence of the phosphate group on the product peptide provided a difference in mass and charge between that of the substrate peptide, resulting in a separation of the substrate and product pools in the sample (Perrin et al., Expert Opin Drug Discovery 2010, January 5(1):51-63).
# As the product and substrate peptide mixture passes the lasers within the instrument, these pools are detected (λex=488 nm, λem=568 nm) and resolved as separate peaks. The ratio between these peaks reflects the activity of the compound at that concentration, in that well, under those conditions.
# Inhibition of KIT (D816V) PDGFRα (D842V) Mutant Biochemical Enzymatic Activity
# All test articles were dissolved in 100% DMSO at a stock concentration of 10 mM. A 100×, 10-point, 4-fold serial dilution of all test compounds was created in 100% DMSO, starting at a relevant concentration, usually 1 mM. A volume of 0.130 μL of each concentration was transferred to the relevant well of a 384-well assay plate (Greiner 781 201) using a TTPLabtech Mosquito nano-liter dispenser. Using the Multidrop, the remaining constituents of the reaction were then added to the 0.130 μL of compound as follows:
# The reaction was stopped by the addition of 70 μl of Stop buffer (100 mM HEPES pH 7.5, 0.015% Brij 35, 35 mM EDTA and 0.2% of Coating Reagent 3, Caliper Lifesciences). The plate was read on a Caliper EZReader 2.
# [2] = Brain penetration in rats, 24 h IV infusion, brain to plasma ratios; type: in vivo, Sprague-Dawley rats
# Source text: To understand the brain penetration, brain to plasma ratios of the compounds were obtained in Sprague-Dawley (SD) rats. In vivo equilibrium distribution between blood and brain in preclinical species such as rats is a commonly used parameter to evaluate brain penetration. Kp,brain is the ratio of concentrations in brain and blood (Cbrain/Cplasma). The compound's passive diffusion characteristics, its affinity for membrane transporters at the blood-brain barrier (BBB), and the relative drug binding affinity differences between the plasma proteins and brain tissue influence the Kp,brain.
# The animals received IV infusion of 1 mg/kg/hr of the compound over 24 hours via jugular vein cannulation. At 24 hours, blood was collected via tail vein bleeding or cardiac puncture (under anesthesia) and centrifuged to obtain plasma samples. Brain tissues were collected and homogenized with phosphate-buffered saline (PBS). The concentrations of the compounds were obtained in the plasma and brain homogenates by LC-MS/MS analysis.
# Sequence of PDGFRα D842V (P16234 24-1089 D842V): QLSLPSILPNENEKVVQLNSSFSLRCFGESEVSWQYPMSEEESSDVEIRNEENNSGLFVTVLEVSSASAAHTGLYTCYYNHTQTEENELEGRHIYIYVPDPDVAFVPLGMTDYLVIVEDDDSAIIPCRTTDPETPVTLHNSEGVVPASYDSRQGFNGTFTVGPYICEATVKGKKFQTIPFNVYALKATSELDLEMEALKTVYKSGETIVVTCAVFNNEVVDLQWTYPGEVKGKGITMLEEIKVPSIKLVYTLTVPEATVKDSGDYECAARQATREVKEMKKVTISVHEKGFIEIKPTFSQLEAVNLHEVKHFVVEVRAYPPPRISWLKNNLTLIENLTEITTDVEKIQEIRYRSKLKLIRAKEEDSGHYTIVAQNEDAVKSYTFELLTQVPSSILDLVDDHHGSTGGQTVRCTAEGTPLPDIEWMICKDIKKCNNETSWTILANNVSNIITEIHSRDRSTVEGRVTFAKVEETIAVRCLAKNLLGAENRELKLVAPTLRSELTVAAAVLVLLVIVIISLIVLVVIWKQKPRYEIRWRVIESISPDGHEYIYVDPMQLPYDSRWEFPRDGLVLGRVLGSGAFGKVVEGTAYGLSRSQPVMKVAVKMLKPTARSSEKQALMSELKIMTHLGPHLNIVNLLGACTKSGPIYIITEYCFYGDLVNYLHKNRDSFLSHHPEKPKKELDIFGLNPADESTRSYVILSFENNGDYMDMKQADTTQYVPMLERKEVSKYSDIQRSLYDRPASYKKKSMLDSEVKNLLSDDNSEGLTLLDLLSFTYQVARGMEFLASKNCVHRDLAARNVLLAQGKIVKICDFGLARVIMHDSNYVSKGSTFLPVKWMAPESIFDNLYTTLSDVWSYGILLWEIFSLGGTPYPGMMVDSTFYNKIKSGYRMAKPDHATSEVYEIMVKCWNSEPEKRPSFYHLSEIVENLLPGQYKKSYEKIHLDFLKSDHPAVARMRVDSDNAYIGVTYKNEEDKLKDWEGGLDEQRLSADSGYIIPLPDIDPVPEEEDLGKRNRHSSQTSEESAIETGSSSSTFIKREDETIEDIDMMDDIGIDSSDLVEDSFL
Structure (SMILES),IC50 [1] [nM],also measured
"CC(C)(O)Cn1cc(-c2cc3c(N4CCN(c5ncc([C@@](C)(N)c6ccc(F)cc6)cn5)CC4)ncnn3c2)cn1 [Compound 1, (S)-1-(4-(4-(4-(5-(1-Amino-1-(4-fluorophenyl)ethyl)pyrimidin-2-yl)piperazin-1-yl)pyrrolo[2,1-f][1,2,4]triazin-6-yl)-1H-pyrazol-1-yl)-2-methylpropan-2-ol]",< 0.3,–
"CC(C)(CO)n1cc(-c2cc3c(N4CCN(c5ncc([C@@](C)(N)c6ccc(F)cc6)cn5)CC4)ncnn3c2)cn1 [Compound 2, (S)-2-(4-(4-(4-(5-(1-amino-1-(4-fluorophenyl)ethyl)pyrimidin-2-yl)piperazin-1-yl)pyrrolo[2,1-f][1,2,4]triazin-6-yl)-1H-pyrazol-1-yl)-2-methylpropan-1-ol]",< 0.3,–
"C[C@@H](O)Cn1cc(-c2cc3c(N4CCN(c5ncc([C@@](C)(N)c6ccc(F)cc6)cn5)CC4)ncnn3c2)cn1 [Compound 3, (R)1-{4-[4-(4-{5-[(S)-1-Amino-1-(4-fluoro-phenyl)-ethyl]-pyrimidin-2-yl}-piperazin-1-yl)-pyrrolo[2,1-f][1,2,4]triazin-6-yl]-pyrazol-1-yl}-propan-2-ol]",< 0.3,–
"C[C@](N)(c1ccc(F)cc1)c1cnc(N2CCN(c3ncnn4cc(-c5cnn([C@H]6C[C@@H](O)C6)c5)cc34)CC2)nc1 [Compound 10, cis-3-(4-(4-(4-(5-((S)-1-Amino-1-(4-fluorophenyl)ethyl)pyrimidin-2-yl)piperazin-1-yl)pyrrolo[2,1-f][1,2,4]triazin-6-yl)-1H-pyrazol-1-yl)cyclobutanol]",–,"Rat Kp ([2]; rat, methods of Example 4): < 0.39"
"C[C@](N)(c1ccc(F)cc1)c1cnc(N2CCN(c3ncnn4cc(-c5cnn(CCO)c5)cc34)CC2)nc1 [Compound 4, (S)-2-(4-(4-(4-(5-(1-Amino-1-(4-fluorophenyl)ethyl)pyrimidin-2-yl)piperazin-1-yl)pyrrolo[2,1-f][1,2,4]triazin-6-yl)-1H-pyrazol-1-yl)ethanol]",< 0.3,–
"CCn1cc(-c2cc3c(N4CCN(c5ncc([C@@](C)(N)c6ccc(F)cc6)cn5)CC4)ncnn3c2)cn1 [Compound 63, reference compound]",–,"Kp, brain ([2]; Mean of 3 rats, IV infusion 1 mg/kg/hr over 24 hours): 1.75"

# More lines, main results first:
IC50 [1] [nM],Structure (SMILES),also measured
< 0.3,"C[C@@H](CO)n1cc(-c2cc3c(N4CCN(c5ncc([C@@](C)(N)c6ccc(F)cc6)cn5)CC4)ncnn3c2)cn1 [Compound 6, (S)-2-(4-(4-(4-(5-((S)-1-amino-1-(4-fluorophenyl)ethyl)pyrimidin-2-yl)piperazin-1-yl)pyrrolo[2,1-f][1,2,4]triazin-6-yl)-1H-pyrazol-1-yl)propan-1-ol]",–
< 0.3,"C[C@H](CO)n1cc(-c2cc3c(N4CCN(c5ncc([C@@](C)(N)c6ccc(F)cc6)cn5)CC4)ncnn3c2)cn1 [Compound 5, (R)-2-(4-(4-(4-(5-((S)-1-Amino-1-(4-fluorophenyl)ethyl)pyrimidin-2-yl)piperazin-1-yl)pyrrolo[2,1-f][1,2,4]triazin-6-yl)-1H-pyrazol-1-yl)propan-1-ol]",–
